One assay concerns the target T1, PAcP (Homo sapiens, UniProt P15309).
T1 sequence (P15309 33-386): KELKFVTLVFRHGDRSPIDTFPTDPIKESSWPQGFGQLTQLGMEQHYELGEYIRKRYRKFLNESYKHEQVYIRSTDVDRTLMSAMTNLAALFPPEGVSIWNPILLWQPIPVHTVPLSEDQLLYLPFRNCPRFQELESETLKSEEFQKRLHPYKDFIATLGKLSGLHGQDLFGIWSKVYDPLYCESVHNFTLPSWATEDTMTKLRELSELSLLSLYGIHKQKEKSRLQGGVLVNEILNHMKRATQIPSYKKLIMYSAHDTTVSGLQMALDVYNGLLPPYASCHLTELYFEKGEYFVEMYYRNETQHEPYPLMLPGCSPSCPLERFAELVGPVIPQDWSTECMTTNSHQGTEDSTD
The settings on record: 20 nM okadaic acid; cited from earlier work.

In another assay the test system is cellular PAcP. The note with it: clone 33 LNCaP cells exposed to DHT (FIG. 3B). The text has this: (§1) Cells were harvested for preparation of total RNA and total cell lysate proteins as described below.
Western Blot Analysis. Subconfluent cells were trypsinized, pelleted, and rinsed with Hepes-buffered saline, pH 7.0, and then lysed in a hypotonic cell lysis buffer containing various protease inhibitors as described above. […] The relative levels of AR and PAcP protein were semiquantified by densitometric analyses of autoradiograms with different exposure time periods utilizing Molecular Dynamics equipment and software program.

In a further assay the test system is PAcP mRNA in LNCaP cells. The text has this:
Nuclear run-on experiment. […] Transcription was continued in the presence of “P-labeled UTP (Amersham. Life Science Inc.). The radioactive RNA was hybridized with a slot blot membrane containing the full length of PAcP cDNA.

For another assay, the system named is PSA mRNA. The note with it: each clone of LNCaP cells (33, 51, 81), 10 nM DHT, 3 days.
Text: as §1

The next assay concerns clone 81 LNCaP cells. The note with it: 10 nM DHT, 7-day treatment, clone 81 LNCaP (FIG. 2A). The text has this:
(§2) Cell Cultures. Human prostate carcinoma cell lines, LNCaP-FGC (LNCaP) (Horoszewicz et al., 1983, Cancer Res. 43:1809–1818), DU145 (Stone et al., 1978, Int. J. Cancer 21:274–281), and PC-3 (Kaighn et al., 1979, Invest. Urol. 17:16–23), were originally obtained from the American Type Culture Collection (Rockville, Md.) and routinely maintained in RPMI 1640 medium supplemented with 7% FBS, 1% glutamine, and 0.5% gentamicin, as described previously (Lin et al., 1992, Cancer Res. 52, 4600–4607; Lin et al., 1986, Mol. Cell. Biol. 6:4753–4757). Cultured cells were fed twice per week and trypsinized once per week; one passage equals one trypsinization. […] For experiments, LNCaP cells that had passage numbers less than 33 were designated as clone 33, passage numbers over 80 as clone 81, and passage numbers between 34 and 80 as clone 51. To investigate basal growth rates of different subcloned cells, cells were seeded and maintained in steroid-reduced medium containing 5% heat-inactivated dialyzed FBS. To quantify cell growth, attached cells were trypsinized and neutralized with medium-FBS. The total cell number including the suspended and attached cells were counted using a hemocytometer via trypan blue exclusion or a Coulter Counter Z1 model (Lin et al., 1992, Cancer Res. 52, 4600–4607; Lin et al., 1994, Differentiation 57:143–149).
(§3) Androgen Effect on Cell Growth, Protein Tyrosine Phosphorylation, PSA, and PAcP Expression. Cells were plated at a density of approximately 1×10^4 cells/cm^2 in RPMI 1640 medium containing 7% FBS and maintained in a 37° C. incubator (5% CO^2) for 3 days (Lin et al., 1992, Cancer Res. 52, 4600–4607; Lin et al., 1993, Arch. Biochem. Biophys. 300:384–390; both are incorporated by reference herein). To investigate androgen effect on cell growth and protein tyrosine phosphorylation, cells that had been maintained in the steroid-reduced medium containing 5% heat-inactivated dialyzed FBS for an additional 48 h were grown in fresh steroid-reduced medium in the presence or absence of different concentrations of DHT. After a time period specified in each set of experiments, cells were harvested and then counted using a hemocytometer or Coulter Counter (Lin et al., 1992, Cancer Res. 52, 4600–4607; Lin et al., 1994, Differentiation 57:143–149; incorporated by reference herein). The cell number in the control well was defined as ratio 1.0.
(§4) In FIG. 1A, the total cell number was counted at day 3 for PC-3 and DU145 cells and at day 4 fro LNCaP cells.

A further assay has as its system PC-3 cells. The settings on record: counted at day 3 (FIG. 1A).
Text: as §2, §3, §4

Another assay deals with DU145 cells. The note with it: counted at day 3 (FIG. 1A).
Text: as §2, §3, §4

In the next assay the test system is clone 33 LNCaP cells. The note with it: 10 nM DHT.
Text: as §2, §3, §4

The test system of the next assay is PC-411 and PC-416 cells. The note with it: p<0.05 (FIG. 6D). As for the experimental part: as §3
In assay [1] the test system is LNCaP-23 and LNCaP-34 cells. The settings on record: LNCaP-23 and LNCaP-34 versus clone 81 parent and LNCaP-CMV cells, different concentrations of DHT (FIG. 5D). On the procedure:
as §3

The subject of the next assay is AR in PC-3 cells. Put plainly: Chloramphenicol acetyltransferase assay (pMSG-CAT reporter). The assay is classed as cell-based, human. The note with it: 10 nM R1881, 24 h, PC-3 cell lysate proteins (FIG. 6A). The text has this: (§5) Chloramphenicol Acetyltransferase Assay.
Another assay has as its system DU 145 cells. The assay is described as above. The note with it: 10 nM R1881, DU 145 cells. The assay is classed as cell-based, human.
Text: as §5

Assay [2] has as its system human AR cDNA-transfected PC-3 cells. The note with it: 10 nM R1881, 24 h, human AR cDNA-transfected PC-3 cells (FIG. 6A).
Method: Chloramphenicol Acetyltransferase Assay. Cells that had been grown in medium containing 5% charcoal-stripped FBS were transfected with the pMSG-CAT reporter plasmid, pSG5 vector DNA, or pSG5-AR plasmid by the liposome-mediated transfection method (Lin et al., 1992, Cancer Res. 52, 4600–4607; Felgner et al., 1987, Proc. Natl. Acad. Sci. U.S.A. 84:7413–7417). After a 24-h incubation period, cells were maintained in medium supplemented with 5% steroid-reduced FBS in the presence or absence of 10 nM R1881, a synthetic androgen, in ethanol (0.01%, v/v). After an additional 24-h incubation, CAT assays were performed as described (Felgner et al., 1987, Proc. Natl. Acad. Sci. U.S.A. 84:7413–7417; Moszowicz et al., 1993, Mol. Endocrinol. 7:1861–869).
The subject of assay [3] is PAcP cDNA transfected C-81 LNCaP cells. Put plainly: Anchorage-independent growth, soft agar analysis. The assay is classed as cell-based, human. The note with it: LNCaP-23, -28, -40 cells, colonies after 3 weeks (FIG. 9B). As for the experimental part:
(§6) Anchorage-independent growth. Anchorage-independent growth of prostate cancer cells was performed by soft agar analysis (Weiner et al., 1989, Oncogene 4:1175–1183; Horoszewicz et al., 1983, Cancer Res. 43:1809–1818). Briefly, cells were seeded in 0.25% agarose on the top of a base layer containing 0.6% agarose. One day after seeding, cell clumps containing more than one cell were excluded and the colony number was counted after 3 weeks of incubation.

Another assay relates to PC-416 cells. Briefly: Anchorage-independent growth, soft agar analysis. The assay is classed as cell-based, human. The settings on record: PC-416 cells (FIG. 9C). On the procedure: as §6
The next assay has as its system PC-3 xenograft tumors. Briefly: Subcutaneous xenograft tumors in male athymic mice, PC-3 cells. The assay is classed as in vivo. The settings on record: for xenograft tumor size as % of PC-3 xenograft tumors: 42 days; for xenograft tumor size: 42 days after cell injection (PC-3 612 mm^3). On the procedure: (§7) Xenograft animal experiments. The protocol for the subcutaneous xenograft animal model in athymic mice was essentially as that described in Lin et al., 1995 (The Prostate 26:194–204). For comparing the tumorigenicity of different LNCaP cells, 1×10^6 cells were suspended in 0.1 ml medium, mixed with 0.1 ml matrigel (Collaborative Biomedical, MA), and injected subcutaneously in the hind flank of male mice. For examining the hormone effect on tumor development, 5×10^5 cells in matrigel were injected into female mice. For the PC-3 cell system, 1×10^6 cells in 0.2 ml medium suspension without matrigel were injected into male mice. The animal maintenance and the tumor measurement were followed the NIH guidelines and the specific guideline by the University of Nebraska Medical Center as previously described (Lin et al., 1995, The Prostate 26:194–204).

Assay [4] has as its system LNCaP xenograft tumors. Put plainly: Subcutaneous xenograft tumors in male athymic mice, LNCaP cells. The assay is classed as in vivo. The settings on record: 28 days after inoculation (C-81 LNCaP 241). As for the experimental part:
as §7

The subject of assay [5] is LNCaP xenograft tumors. Briefly: Subcutaneous xenograft tumors in female athymic mice, LNCaP cells. The assay is classed as in vivo. The settings on record: for mice that did not develop any tumor: female, after 100 days of inoculation; for averaged tumor size: 70 days. On the procedure: as §7

Where two headings read alike, the source gives them in different places.

Turning to `C=C1[C@@H](O)[C@@H]2O[C@]3(CC[C@H](/C=C/[C@@H](C)[C@@H]4CC(C)=C[C@@]5(O[C@H](C[C@@](C)(O)C(=O)O)CC[C@H]5O)O4)O3)CC[C@H]2O[C@@H]1[C@@H](O)C[C@H](C)[C@H]1O[C@@]2(CCCCO2)CC[C@H]1C` [okadaic acid], the “effect on PAcP activity” value at PAcP is reported as “not affected”.

Consider `C[C@]12CCC(=O)C[C@@H]1CC[C@@H]1[C@@H]2CC[C@]2(C)[C@@H](O)CC[C@@H]12` [DHT, 5α-dihydrotestosterone], for which the “cellular PAcP level” value in the assay with cellular PAcP is reported as “diminished level”. For the same molecule, the “transcription of PAcP mRNA” value is recorded as “suppressed” in the assay on PAcP mRNA in LNCaP cells (high density LNCaP cells (FIG. 11B)) and “stimulated” in the assay with PAcP mRNA in LNCaP cells (low density LNCaP cells (FIG. 11B)). Also, in the assay on PSA mRNA, the “induction of PSA mRNA, normalized to GAPDH” value is reported as 2–3 fold. For the same molecule, the “stimulation of cell growth” value is recorded as ~20% with clone 81 LNCaP cells and 1.5–2 fold in the assay on clone 33 LNCaP cells (clone 33 LNCaP, steroid-reduced medium, counted at day 4 (FIG. 1A)). The “effect on cell growth” value in the assay on PC-3 cells is recorded as “did not have a significant effect”; in the assay on DU145 cells, “did not have a significant effect”; in the assay with PC-411 and PC-416 cells it was “stimulated significantly”. Moreover, the “stimulatory effect on cell growth” value in the assay with clone 33 LNCaP cells (7-day treatment, clone 33 LNCaP (FIG. 2A)) is on record as ≤ 2.5 fold. Also, in [1], the “degree of androgen stimulation of cell growth” value is listed as “enhanced”.

Regarding `C[C@]1(O)CC[C@H]2[C@@H]3CCC4=CC(=O)CCC4=C3C=C[C@@]21C` [R1881], the “stimulation of the CAT activity” value with AR in PC-3 cells was ~2 fold; in [2], ~9 fold. For the same molecule, the “effect on the CAT activity” value in the assay with DU 145 cells is recorded as “did not have an effect”.

B1: cellular PAcP: cellular form of human prostatic acid phosphatase, expressed from full-length human PAcP cDNA driven by a pCMV-neo expression vector (protein)
chain: KELKFVTLVFRHGDRSPIDTFPTDPIKESSWPQGFGQLTQLGMEQHYELGEYIRKRYRKFLNESYKHEQVYIRSTDVDRTLMSAMTNLAALFPPEGVSIWNPILLWQPIPVHTVPLSEDQLLYLPFRNCPRFQELESETLKSEEFQKRLHPYKDFIATLGKLSGLHGQDLFGIWSKVYDPLYCESVHNFTLPSWATEDTMTKLRELSELSLLSLYGIHKQKEKSRLQGGVLVNEILNHMKRATQIPSYKKLIMYSAHDTTVSGLQMALDVYNGLLPPYASCHLTELYFEKGEYFVEMYYRNETQHEPYPLMLPGCSPSCPLERFAELVGPVIPQDWSTECMTTNSHQGTEDSTD
For the molecule B1, the “decrease of anchorage-independent growth” value in assay [3] is “more than 100 folds”. In the assay on PC-416 cells, the anchorage-independent growth result is given as “diminished”. Moreover, the “xenograft tumor size as % of PC-3 xenograft tumors” value in the assay on PC-3 xenograft tumors (PC-412, male mice) is recorded as “about 38%”; in the assay on PC-3 xenograft tumors (PC-416, male mice), ~23%. In addition, the xenograft tumor size in the assay with PC-3 xenograft tumors (PC-412, male mice) stood at 233 mm^3; with PC-3 xenograft tumors (PC-416, male mice), 138 mm^3. Also, the averaged tumor size turned out to be 143 mm^3 in the assay on LNCaP xenograft tumors [4] (LN-23 cells); 115 mm^3 in the assay on LNCaP xenograft tumors [4] (LN-34 cells); 347 mm^3 in the assay with LNCaP xenograft tumors [5] (LN-23 tumors, female mice); 214 mm^3 in the assay with LNCaP xenograft tumors [5] (LN-40 tumors, female mice). Further, the tumor induction entry with LNCaP xenograft tumors [5] (LN-23 and LN-40 cells, female mice, 35 days after inoculation (clone-81 782 mm^3)) is “no detectable tumor”. Further, the “mice that did not develop any tumor” value was 20% with LNCaP xenograft tumors [5] (LN-23 mice) and 50% in the assay on LNCaP xenograft tumors [5] (LN-40 mice).
